In the SangsterLogP compilation:

Legend:
[1] = method code SF-TN, from DOI: 10.3891/acta.chem.scand.05-0774
[2] = method code SF-CR, from DOI: 10.3891/acta.chem.scand.05-0774

Row | logP | Compound | logP [1] | other results
1 | -1.17 | C1CNCCN1 | – | –
2 | -1.43 | OCCNCCO | – | –
3 | – | O=C(O)CBr | 0.41 | –
4 | – | COC(C)=O | – | logP [2]: 0.18
5 | -0.96 | CC(O)CN (centres undefined) | – | –
6 | – | COCOC | – | logP [2]: 0
7 | -1.31 | NCCO | – | –
8 | – | O=C(O)CCCCCCCC(=O)O | 1.59 | –
9 | -0.82 | CC(O)CNCC(C)O (centres undefined) | – | –
10 | – | O=C(O)CC(O)C(=O)O (centres undefined) | -1.26 | –
11 | – | CC(O)C(C)O (centres undefined) | – | logP [2]: -0.92
12 | – | CC(C)(O)C(=O)O | -0.36 | –
13 | – | CCC(Br)C(=O)O (centres undefined) | 1.42 | –
14 | – | CC(Br)C(=O)O (centres undefined) | 0.92 | –
